Where two headings read alike, the source gives them in different places. Square brackets hold non-standard residues; d marks the D form. Ends that are not written are not given here. Peptide text beside a SMILES is read from it. pGlu = O=C1CC[C@@H](C(=O)O)N1
How the values were obtained:
[1] = target: T1, human Type I GnRH receptor (Homo sapiens, UniProt P30968); assay: Phospho-MAP kinase assay, ERK2 activation in transfected COS-7 cells; assay type: cell-based; conditions: FIG. 8a
T1 construct: expressed in transfected cells; host or cells: COS-7 cells, transient transfection (Superfect)
T1 sequence (P30968 1-328): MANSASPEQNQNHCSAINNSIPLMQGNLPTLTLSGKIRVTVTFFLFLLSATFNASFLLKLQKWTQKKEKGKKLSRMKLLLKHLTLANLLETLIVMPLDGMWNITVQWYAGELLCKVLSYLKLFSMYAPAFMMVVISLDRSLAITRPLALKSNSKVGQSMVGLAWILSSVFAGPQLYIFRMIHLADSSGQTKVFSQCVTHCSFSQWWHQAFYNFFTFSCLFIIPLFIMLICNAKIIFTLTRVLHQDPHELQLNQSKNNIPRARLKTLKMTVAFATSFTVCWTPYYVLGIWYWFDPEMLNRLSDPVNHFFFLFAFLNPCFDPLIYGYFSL
Procedure: (§1) Cell culture and transfection. COS-7 cells were cultured as previously described (20, 21). Transient transfections of COS-7 cells with human Type I GnRH receptor or marmoset Type II GnRH receptor, along with myc-tagged ERK2, JNK and p38α constructs were performed using Superfect (Qiagen) according to the manufacturer's protocol. All assays described were performed 48 h post transfection.
(§2) Phospho-MAP kinase assay. […] After ligand stimulation, COS-7 cells were prepared for immunoprecipitation (23). Co-transfected myc-tagged MAP kinase constructs were immunoprecipitated from cell lysates by overnight incubation with myc-agarose slurry (Santa Cruz), washed, an equal volume of 2×Laemmli sample buffer added, resolved by SDS-PAGE and electrotransferred to PVDF membrane (NEN Life Sciences). Activated MAP kinase was detected using anti-phospho-ERK/JNK/p38a-kinase specific antisera (New England Biolabs), visualised by enzyme-linked chemifluorescence (Amersham-Pharmacia) and quantified using a phosphorimager. The degree of phosphorylated MAP kinase was normalised to the amount of unphosphorylated MAP kinase detected with specific antisera.

[2] = target: T2, Marmoset Type II GnRH-R (Callithrix jacchus, UniProt Q95MG6); assay: Total inositol phosphate production in transfected COS-7 cells; assay type: cell-based; conditions: for EC50: s.e.m.
T2 construct: Full length marmoset Type II GnRH receptor was produced by PCR; expressed in transfected cells; host or cells: COS-7 cells, transient transfection (Superfect), plasmid pcDNA3.1+
T2 sequence (Q95MG6 1-380): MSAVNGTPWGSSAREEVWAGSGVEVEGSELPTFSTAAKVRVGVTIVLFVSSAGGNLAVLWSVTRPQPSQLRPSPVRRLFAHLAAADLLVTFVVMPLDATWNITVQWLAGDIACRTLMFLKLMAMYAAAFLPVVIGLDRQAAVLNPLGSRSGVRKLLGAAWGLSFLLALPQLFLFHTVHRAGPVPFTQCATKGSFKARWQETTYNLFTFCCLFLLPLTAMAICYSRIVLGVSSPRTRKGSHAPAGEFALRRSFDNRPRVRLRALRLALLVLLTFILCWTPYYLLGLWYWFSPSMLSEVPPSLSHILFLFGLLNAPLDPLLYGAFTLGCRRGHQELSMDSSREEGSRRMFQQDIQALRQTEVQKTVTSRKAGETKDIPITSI
Procedure: as §1
(§3) Receptor binding and inositol phosphate production.

[3] = target: T2, Marmoset Type II GnRH-R; assay: Receptor binding, competition with 125I-[His5,D-Tyr6]GnRH, transfected COS-7 cells; conditions: for IC50: s.e.m.
Procedure: as §1, §3

[4] = target: T3, marmoset Type II GnRH receptor (Callithrix jacchus, UniProt Q95MG6); assay: Phospho-MAP kinase assay, p38α activation in transfected COS-7 cells; assay type: cell-based; conditions: 100 nM, FIG. 8c
T3 construct: Full length marmoset Type II GnRH receptor was produced by PCR; expressed in transfected cells; host or cells: COS-7 cells, transient transfection (Superfect), plasmid pcDNA3.1+
T3 sequence (Q95MG6 1-380): T2 sequence (Q95MG6 1-380)
Procedure: as §1, §2

[5] = test system: Type I receptor; conditions: cited from earlier work
[6] = test system: FSH and LH secretion; assay: Stimulation of LH and FSH in sheep (Soay ram model); assay type: in vivo; conditions: 10 μg dose, intravenous bolus, n=8
Procedure: Stimulation of LH and FSH in sheep. […] The same animals (n=8) were used on the two occasions. The GnRHs were administered at doses of 250 ng/ram and 10 μg/ram in a cross-over design with a week between treatments to permit full recovery. The peptides were dissolved in 1 ml of 0.9% saline and given as an intravenous bolus. Blood samples were collected every 10 min, from 20 min before, until 2 h after the treatments and assayed by specific radioimmunoassays (24). The FSH and LH responses to the GnRH agonists were calculated as delta responses (2 h mean hormone concentration post treatment minus 20 min mean pre-treatment hormone concentration). […] This was assessed for each animal and then for the group (mean±SEM, n=8), under both LD and SD.

[7] = target: T1, human Type I GnRH receptor; assay: Total inositol phosphate production in transfected COS-7 cells; assay type: cell-based; conditions: for EC50: Table 1, s.e.m., n=3-6, read-out: InsP production (EC50) Human Type I
Procedure: as §1, §3

[8] = test system: Marmoset Type II GnRH-R; assay: Receptor binding, competition with 125I-[His5,D-Tyr6]GnRH, transfected COS-7 cells; conditions: Type II versus Type I receptor; for Selectivity of the Type II receptor for the ligand (in words): binding, COS-7 cells
Procedure: as §1, §3

[9] = target: T1, human Type I GnRH receptor; assay: as above; conditions: for IC50: Table 1, s.e.m., n=3-6, read-out: Ligand binding (IC50) Human Type I
Procedure: as §1, §3

[10] = target: T4, Marmoset Type II GnRH receptor (marmoset); assay: competition with ^125I-[His^5-D-Tyr^6]GnRH I on COS-7 cells expressing the receptor (n = 3-6)
T4 chain: T2 sequence (Q95MG6 1-380)

[11] = target: T4, Marmoset Type II GnRH receptor; assay: cell-based or functional assay
[12] = target: T5, human Type I GnRH receptor (human, UniProt P30968 1-328); assay: cell-based or functional assay
T5 sequence (looked up): T1 sequence (P30968 1-328)

[13] = target: T4, Marmoset Type II GnRH receptor; assay: cell-based or functional assay
[14] = target: T6, Marmoset Type II GnRH receptor (marmoset); assay: cell-based or functional assay
T6 chain: T2 sequence (Q95MG6 1-380)

[15] = target: T7, human Type I GnRH receptor (human), P30968; assay: cell-based or functional assay
T7 chain: T1 sequence (P30968 1-328)

[16] = target: T6, Marmoset Type II GnRH receptor …; assay: competition with ^125I-[His^5-D-Tyr^6]GnRH I on COS-7 cells expressing the receptor (n = 3-6)
[17] = target: T7, human Type I GnRH receptor (human), …; assay: as above
[18] = target: T6, Marmoset Type II GnRH receptor …; assay: competition with ^125I-[His^5,D-Tyr^6]GnRH on COS-7 cells expressing marmoset Type II GnRH-R (FIG. 4, n=2)
[19] = target: T5, human Type I GnRH receptor; assay: competition with ^125I-[His^5-D-Tyr^6]GnRH I on COS-7 cells expressing the receptor (n = 3-6)
[20] = target: T4, Marmoset Type II GnRH receptor; assay: receptor binding assay on COS-7 cells; reference human Type I GnRH receptor
[21] = target: T4, Marmoset Type II GnRH receptor; assay: receptor binding assay on COS-7 cells; reference mammalian GnRH I
[22] = target: T4, Marmoset Type II GnRH receptor; assay: competition with ^125I-[His^5,D-Tyr^6]GnRH on COS-7 cells expressing marmoset Type II GnRH-R (FIG. 4, n=2)
[23] = FIG. 5, COS-7 cells, n=2, read-out: EC50, total inositol phosphate production
[24] = Table 1, n=3-6, read-out: InsP production (EC50) Marmoset Type II
[25] = FIG. 4, COS-7 cells, n=2, read-out: IC50, heterologous competition binding of 125I-[His5,D-Tyr6]GnRH
[26] = Table 1, n=3-6, read-out: Ligand binding (IC50) Marmoset Type II

CC(C)C[C@H](NC(=O)CNC(=O)[C@H](Cc1ccc(O)cc1)NC(=O)[C@H](CO)NC(=O)[C@H](Cc1c[nH]c2ccccc12)NC(=O)[C@H](Cc1c[nH]cn1)NC(=O)[C@@H]1CCC(=O)N1)C(=O)N[C@@H](CCCNC(=N)N)C(=O)N1CCC[C@H]1C(=O)NCC(N)=O [GnRH I]
Activation of ERK2 (in words) [1]: considerably more potent than GnRH II | EC50 [2, 23]: 33.2 ± 6.3 nM | EC50 [2, 24]: 40.5 ± 4.43 nM | IC50 [3, 25]: 51.7 ± 1.9 nM | IC50 [3, 26]: 42.6 ± 3.19 nM

NC(=O)CNC(=O)[C@@H]1CCCN1C(=O)[C@H](Cc1ccc(O)cc1)NC(=O)[C@H](Cc1c[nH]c2ccccc12)NC(=O)CNC(=O)[C@H](Cc1c[nH]cn1)NC(=O)[C@H](CO)NC(=O)[C@H](Cc1c[nH]c2ccccc12)NC(=O)[C@H](Cc1c[nH]cn1)NC(=O)[C@@H]1CCC(=O)N1 [GnRH II, [His^5,Trp^7,Tyr^8]GnRH I] ([pGlu]HWSHGWYPG-NH2; C-terminus assumed)
Activation of p38α MAP kinase (in words) [4]: selective and time-dependent activation | Affinity and potency as percent of mammalian GnRH I at the Type I receptor [5]: ≤ 20% | Mean ratio of FSH to LH secretion relative to that induced by mammalian GnRH I ([6]; sexually active rams): 2.14±0.29 times | Mean ratio of FSH to LH secretion relative to that induced by mammalian GnRH I ([6]; sexually quiescent rams): 2.02±0.34 times | Inositol phosphate production activity as percent of mammalian GnRH I at the Type I receptor ([7]; COS-7 cells): 9% | Inositol phosphate production activity relative to mammalian GnRH I at the Type II receptor ([2]; COS-7 cells): 90 fold | EC50 [2, 23]: 0.46 ± 0.12 nM | EC50 [2, 24]: 0.45 ± 0.05 nM | Affinity for the Type II receptor relative to the Type I receptor [8]: 24 fold | Selectivity of the Type II receptor for the ligand (in words) [8]: high selectivity | Receptor binding activity as percent of mammalian GnRH I at the Type I receptor ([9]; COS-7 cells): 10% | Receptor binding activity relative to mammalian GnRH I at the Type II receptor ([3]; COS-7 cells): 40 fold | IC50 [3, 25]: 1.3 ± 0.2 nM | IC50 [3, 26]: 1.07 ± 0.04 nM

N=C(N)NCCC[C@@H](NC(=O)[C@H](Cc1c[nH]cn1)NC(=O)[C@H](CO)NC(=O)[C@H](Cc1c[nH]c2ccccc12)NC(=O)[C@H](Cc1c[nH]cn1)NC(=O)[C@@H]1CCC(=O)N1)C(=O)N[C@@H](Cc1c[nH]c2ccccc12)C(=O)N[C@@H](Cc1ccc(O)cc1)C(=O)N1CCC[C@H]1C(=O)NCC(N)=O [[D-Arg^6] GnRH II, [D-Arg^6]GnRH II] ([pGlu]HWSH[dR]WYPG-NH2; C-terminus assumed)
EC50 [7]: 3.8 ± 0.71 nM | EC50 [2, 23]: 1.1 ± 0.23 nM | EC50 [2, 24]: 2.39 ± 0.64 nM | Selectivity of the Type II receptor for the ligand (in words) [8]: more selective | IC50 [9]: 11.9 ± 0.35 nM | IC50 [3, 26]: 3.34 ± 0.06 nM

CC(C)C[C@H](NC(=O)[C@H](Cc1c[nH]c2ccccc12)NC(=O)CNC(=O)[C@H](Cc1ccc(O)cc1)NC(=O)[C@H](CO)NC(=O)[C@H](Cc1c[nH]c2ccccc12)NC(=O)[C@H](Cc1c[nH]cn1)NC(=O)[C@@H]1CCC(=O)N1)C(=O)N1CCC[C@H]1C(=O)NCC(N)=O [sGnRH, [Trp^7,Leu^8]GnRH I] ([pGlu]HWSYGWLPG-NH2; C-terminus assumed)
EC50 [7]: 9.62 ± 3.5 nM | EC50 [2, 23]: 8.7 ± 0.5 nM | EC50 [2, 24]: 5.99 ± 0.91 nM | Selectivity of the Type II receptor for the ligand (in words) [8]: more selective | IC50 [9]: 244 ± 23.6 nM | IC50 [3, 25]: 9.8 ± 1.4 nM | IC50 [3, 26]: 9.48 ± 2.17 nM

B1: [D-Arg^6]GnRH II (peptide, UniProt O43555 24-33, looked up)
peptide: QHWSH[dR]WYPG
modifications: ends and bridges not checked
notes: mature; Synthetic analogue of GnRH II; also called [D-Arg^6]GnRH Type II
IC50 [10]: 3.34 nM | InsP production (EC50) [11]: 2.39 nM | InsP production (EC50) [12]: 3.8 nM | total inositol phosphate production (EC50) [13]: 1.1 nM

QHWSYGWLPG (peptide, UniProt P01148 24-33, looked up, modifications not checked) [salmon GnRH, P01148 24-33]
InsP production (EC50) [14]: 5.99 nM | total inositol phosphate production (EC50) [14]: 8.7 nM | InsP production (EC50) [15]: 9.62 nM | IC50 [16]: 9.48 nM | IC50 [17]: 244 nM | IC50 [18]: 9.8 nM

B2: GnRH II (peptide, UniProt O43555 24-33, looked up)
peptide: QHWSHGWYPG
modifications: ends and bridges not checked
notes: mature; also called GnRH Type II; Type II GnRH
IC50 [10]: 1.07 nM | IC50 [19]: 26.1 nM | fold greater affinity than for the Type I receptor [20]: 24 fold | fold greater activity relative to mammalian GnRH I [21]: 40 fold | IC50 [22]: 1.3 nM | InsP production (EC50) [11]: 0.45 nM | InsP production (EC50) [12]: 7.41 nM | stimulation of inositol phosphate production, fold greater activity relative to mammalian GnRH I [13]: 90 fold | total inositol phosphate production (EC50) [13]: 0.46 nM

QHWSYGLRPG (peptide, UniProt P01148 24-33, looked up, modifications not checked) [Mammalian GnRH I, P01148 24-33]
InsP production (EC50) [14]: 40.5 nM | total inositol phosphate production (EC50) [14]: 33.2 nM | IC50 [16]: 42.6 nM | IC50 [18]: 51.7 nM

From patent US20030124585A1, “Type II gonadotropin-releasing hormone receptor and polynucleotides encoding therefor” (Medical Research Council, priority 2000, published 2003)
